# Measurements reported in patent US9914914B2, “Polymerase capable of producing non-DNA nucleotide polymers” (Medical Research Council, priority 2012, dated 2018).
# [HNA-N] = hexitol nucleic acid (N: the base)
# Columns and labels:
# [1] = test system: sTAR (HIV trans-activating response RNA motif); experiment: HNA aptamer affinity by SPR, BLI and ELONA titration; format: binding; conditions: read-out: dissociation constant (KD)
# Experimental: ELONA (Aptamer-ELISA) was carried out as described (56) with minor modifications. For screening and characterization, ssRNA-HNA chimeras were prepared as described above (13.) (using fitcRNAfd (Table S5)) and binding assayed by immunodetection of the FITC-tag on the bound aptamer. […] Bound antibody was detected using a colorimetric substrate as described above (see PAA, 5) […]
# For anti-TAR aptamers, 1000RU sTAR was captured (or, as a reference flow cell, 1000RU scrambledTAR-1) before blocking with excess free biotin. Anti-TAR aptamers were injected for 150 s at a series of concentrations (125 nM, 62.5 nM, 31.3 nM, 15.6 nM, 7.8 nM and 3.9 nM) and dissociation monitored for 600 s, in buffer R (20 mM NaOAc, 140 mM KOAc, 3 mM Mg(OAc)2, 0.1% (v/v) Tween20). […]
# To obtain optimal fits, SPR data was fitted to double-exponential model using KaleidaGraph (Synergy Software, Pennsylvania, USA) and Prism (GraphPad Software Inc., California, USA) (57). The rate constants of dissociation were measured by fitting dissociation data at time t (Rdissoc) using a double-exponential function: Rdissoc=Rolexp^−(k^off1^t)+Ro2exp^−(k^off2^t)+RI (1) where koff is the dissociation rate constant, Ro is maximum change in resonance for each phase, RI is the bulk resonance change. […]
# [2] = target: T1, CD30 (Homo sapiens, UniProt P28908); experiment: Fluorescence polarisation affinity of txNA aptamers; format: binding
# T1 construct: selections were carried out against the extracellular domains of both CD30 and L1-CAM expressed as N-terminal Fc chimeras
# T1 sequence (P28908 19-385 limits assumed): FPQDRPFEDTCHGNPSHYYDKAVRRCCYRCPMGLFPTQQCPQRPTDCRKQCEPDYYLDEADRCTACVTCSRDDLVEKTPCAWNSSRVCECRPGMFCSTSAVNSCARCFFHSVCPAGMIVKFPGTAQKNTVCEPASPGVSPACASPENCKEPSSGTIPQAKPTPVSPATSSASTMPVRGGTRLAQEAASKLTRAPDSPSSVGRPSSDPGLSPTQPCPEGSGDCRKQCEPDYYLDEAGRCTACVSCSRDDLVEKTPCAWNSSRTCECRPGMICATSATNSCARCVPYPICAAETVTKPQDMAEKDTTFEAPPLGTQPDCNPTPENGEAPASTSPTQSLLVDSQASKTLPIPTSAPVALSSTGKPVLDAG
# Experimental: In this example, selections were carried out against the extracellular domains of both CD30 and L1-CAM expressed as N-terminal Fc chimeras. Briefly, for each round libraries were annealed in 1×HBSSTT (Hanks' Balanced Salt Solution with 5 mM each TRIS pH 7.4 and 8.3 and 0.05% Tween-20) for 5 min 85° C. and cooled to 4° C. at 0.1° C./sec, exposed to either protein AG or streptavidin-coated paramagnetic beads (see below), filtered to remove the beads and then added to recombinant protein in 1×HBSST. These mixtures were incubated at room temperature on a rotator to allow aptamers to bind to the recombinant proteins in solution and binders were recovered via protein AG or streptavidin-coated paramagnetic beds. Rounds 1, 2 and 5 were carried out using native protein and Protein AG Magnetic Beads (Pierce). All other rounds were carried out using protein biotinylated with NHS-LC-LC-biotin (Pierce) and recovered from the binding incubation using NanoLink Streptavidin Magnetic beads (SoluLink). The beads were washed in 1×HBSSTT for 2 h-16 h at room temperature using a Thermo KingFisher and aptamers eluted from the proteins bound to the beads using 30 mM NaOH. Negative selections were carried out against free Fc from round 5 onwards. […]
# Aptamers selected against a) CD30 and b) L1-CAM were tested in fluorescence polarisation (FP) and affinities calculated as above (and/or Pinheiro et al (2012)). […]
Substance,Kd [1] [nM],binding to CD30 [2]
"T5-S8-7: anti-TAR HNA aptamer, SEQ ID NO:16 (AGGTAGTGCTGTTCGTTCATCTCAAATCTAGTTCGCTATCCAGTTGGC; all [HNA-N], backbone and methylation of C not given here)",28 to 67,
"CD30_13: txNA aptamer selected against CD30, SEQ ID NO:20 (TAGATGTGGTAGAAGTCGTCATTTGGCGAGAAAGCTCAGTCTCAGG; XNA aptamer, chemistry of this clone not given here)",,bind CD30 tightly and with good affinity
